Source: US20230257372A1 (CHONG KUN DANG PHARMACEUTICAL CORP., priority 2020, published 2023)
Like-named read-outs stand apart in the source and are kept apart here.

Columns and labels:
human recombinant HDAC1 = molecular target: T1, human recombinant HDAC1 (Homo sapiens, UniProt Q13547); assay: HDAC1 enzyme activity inhibition (HDAC Fluorimetric Drug Discovery Kit); format: biochemical; conditions: read-out: HDAC1
T1 construct: purchased Enzo Life Science, Inc. BML-SE456
Procedure, shortened: (§1)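 Five-fold compound dilutions incubated with […] recombinant enzyme and 10 μM fluorogenic Fluor de Lys substrate, 60 min at 30° C. Fluor de Lys Developer II then added for 30 min to generate the fluorescent read-out.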

human recombinant HDAC6 = molecular target: T2, human recombinant HDAC6 (Homo sapiens, UniProt Q9UBN7); assay: HDAC6 enzyme activity inhibition (HDAC Fluorimetric Drug Discovery Kit); format: biochemical
T2 construct: purchased Calbiochem Inc. 382180
T2 sequence (Q9UBN7 1-1215): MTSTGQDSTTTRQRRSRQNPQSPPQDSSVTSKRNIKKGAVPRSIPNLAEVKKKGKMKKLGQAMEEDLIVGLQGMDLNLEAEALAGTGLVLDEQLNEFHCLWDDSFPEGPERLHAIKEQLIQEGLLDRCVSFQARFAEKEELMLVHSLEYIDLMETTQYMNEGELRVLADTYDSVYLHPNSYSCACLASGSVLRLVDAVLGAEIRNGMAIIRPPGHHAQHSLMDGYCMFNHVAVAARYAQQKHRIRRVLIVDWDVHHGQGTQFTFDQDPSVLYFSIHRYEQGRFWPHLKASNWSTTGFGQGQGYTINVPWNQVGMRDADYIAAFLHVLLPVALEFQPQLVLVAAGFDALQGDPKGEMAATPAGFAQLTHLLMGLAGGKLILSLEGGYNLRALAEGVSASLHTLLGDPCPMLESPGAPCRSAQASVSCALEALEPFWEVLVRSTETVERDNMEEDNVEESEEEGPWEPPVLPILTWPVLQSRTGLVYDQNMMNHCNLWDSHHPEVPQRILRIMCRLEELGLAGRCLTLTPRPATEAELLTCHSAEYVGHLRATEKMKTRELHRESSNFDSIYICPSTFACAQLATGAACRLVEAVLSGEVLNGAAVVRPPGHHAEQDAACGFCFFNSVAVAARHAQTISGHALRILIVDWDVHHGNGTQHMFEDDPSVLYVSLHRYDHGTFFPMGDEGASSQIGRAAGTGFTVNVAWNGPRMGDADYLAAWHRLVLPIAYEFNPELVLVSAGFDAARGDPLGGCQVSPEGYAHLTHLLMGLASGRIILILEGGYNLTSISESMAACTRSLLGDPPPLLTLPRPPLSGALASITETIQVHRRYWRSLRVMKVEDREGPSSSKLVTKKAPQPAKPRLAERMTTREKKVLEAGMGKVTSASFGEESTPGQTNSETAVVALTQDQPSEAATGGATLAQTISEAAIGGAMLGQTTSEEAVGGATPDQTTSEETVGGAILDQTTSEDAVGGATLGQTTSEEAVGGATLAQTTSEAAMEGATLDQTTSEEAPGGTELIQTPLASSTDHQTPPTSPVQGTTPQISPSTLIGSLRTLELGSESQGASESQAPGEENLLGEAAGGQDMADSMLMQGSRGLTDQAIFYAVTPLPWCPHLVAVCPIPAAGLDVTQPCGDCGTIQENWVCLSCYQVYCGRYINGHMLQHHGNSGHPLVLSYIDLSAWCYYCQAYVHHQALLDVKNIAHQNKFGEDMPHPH
Procedure, shortened: as §1

[1] = human recombinant HDAC1, IC50 calculated with GraphPad Prism
[2] = human recombinant HDAC6, IC50 calculated with GraphPad Prism
[3] = human recombinant HDAC1, Fluor de Lys substrate, 30° C. 60 minutes
[4] = human recombinant HDAC6, same protocol as HDAC1

T1 sequence (Q13547 whole entry): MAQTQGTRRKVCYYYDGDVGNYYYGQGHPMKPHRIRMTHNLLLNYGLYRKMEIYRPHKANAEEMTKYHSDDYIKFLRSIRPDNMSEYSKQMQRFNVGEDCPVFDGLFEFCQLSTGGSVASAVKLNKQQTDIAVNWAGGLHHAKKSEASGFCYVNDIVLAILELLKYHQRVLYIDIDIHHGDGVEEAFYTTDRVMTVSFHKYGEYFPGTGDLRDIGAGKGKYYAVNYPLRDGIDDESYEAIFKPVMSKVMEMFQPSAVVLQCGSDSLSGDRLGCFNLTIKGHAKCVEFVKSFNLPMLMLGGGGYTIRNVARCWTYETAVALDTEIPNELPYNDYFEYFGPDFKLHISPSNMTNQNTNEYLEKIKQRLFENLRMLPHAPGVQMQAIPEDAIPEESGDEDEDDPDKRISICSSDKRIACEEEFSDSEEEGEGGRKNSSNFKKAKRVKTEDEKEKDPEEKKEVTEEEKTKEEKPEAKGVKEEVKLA

`CC(=O)N1CCC(Cc2cn(Cc3ccc(-c4nnc(C(F)F)o4)cn3)nn2)CC1` [Compound 4015, 1-(4-((1-((5-(5-(difluoromethyl)-1,3,4-oxadiazol-2-yl)pyridin-2-yl)methyl)-1H-1,2,3-triazol-4-yl)methyl)piperidin-1-yl)ethan-1-one] was tested, and the IC50 (human recombinant HDAC1; [1]) was > 50000 nM, the “HDAC6 selectivity (fold)” value (human recombinant HDAC6; HDAC1 IC50 / HDAC6 IC50) was 106 fold and the IC50 (human recombinant HDAC6; [2]) was 471 nM.
`Fc1cc(-c2nnc(C(F)F)o2)ccc1Cn1cc(-c2ccc(CN3CC[C@H](F)C3)cc2)nn1` [Compound 4606, (S)-2-(difluoromethyl)-5-(3-fluoro-4-((4-(4-((3-fluoropyrrolidin-1-yl)methyl)phenyl)-1H-1,2,3-triazol-1-yl)methyl)phenyl)-1,3,4-oxadiazole] was tested, and the IC50 (human recombinant HDAC1; [3]) was > 50000 nM, the “HDAC6 selectivity (fold)” value (human recombinant HDAC6; HDAC6 over HDAC1) was 2415 fold and the IC50 (human recombinant HDAC6; [4]) was 20.7 nM.
`FC(F)c1nnc(-c2ccc(Cn3cc(-c4cccc(CN5CCOCC5)c4)nn3)cc2)o1` [Compound 4411, 4-(3-(1-(4-(5-(difluoromethyl)-1,3,4-oxadiazol-2-yl)benzyl)-1H-1,2,3-triazol-4-yl)benzyl)morpholine] was tested, and the IC50 (human recombinant HDAC1; [1]) was > 50000 nM, the “HDAC6 selectivity (fold)” value (human recombinant HDAC6; HDAC1 IC50 / HDAC6 IC50) was 662 fold and the IC50 (human recombinant HDAC6; [2]) was 75.5 nM.
For `Fc1cc(-c2nnc(C(F)F)o2)ccc1Cn1cc(-c2cncs2)nn1` [Compound 17851, 2-(difluoromethyl)-5-(3-fluoro-4-((4-(thiazol-5-yl)-1H-1,2,3-triazol-1-yl)methyl)phenyl)-1,3,4-oxadiazole], the IC50 (human recombinant HDAC1; [3]) was > 50000 nM, the “HDAC6 selectivity (fold)” value (human recombinant HDAC6; HDAC6 over HDAC1) was 588 fold and the IC50 (human recombinant HDAC6; [4]) was 84.9 nM.
With `Fc1cc(-c2nnc(C(F)F)o2)ccc1Cn1cc(-c2ccc(CN3CCC3)s2)nn1` [Compound 17912, 2-(4-((4-(5-(azetidin-1-ylmethyl)thiophen-2-yl)-1H-1,2,3-triazol-1-yl)methyl)-3-fluorophenyl)-5-(difluoromethyl)-1,3,4-oxadiazole] the IC50 (human recombinant HDAC1; [3]) was > 50000 nM, the “HDAC6 selectivity (fold)” value (human recombinant HDAC6; HDAC6 over HDAC1) was 1237 fold and the IC50 (human recombinant HDAC6; [4]) was 40.4 nM.
For `Fc1cc(-c2nnc(C(F)F)o2)ccc1Cn1cc(-c2cnc3[nH]ccc3c2)nn1` [Compound 4524, 2-(4-((4-(1H-pyrrolo[2,3-b]pyridin-5-yl)-1H-1,2,3-triazol-1-yl)methyl)-3-fluorophenyl)-5-(difluoromethyl)-1,3,4-oxadiazole], the IC50 (human recombinant HDAC1; [3]) was > 50000 nM, the “HDAC6 selectivity (fold)” value (human recombinant HDAC6; HDAC6 over HDAC1) was 6024 fold and the IC50 (human recombinant HDAC6; [4]) was 8.3 nM.
`CC1(C)CCN(Cc2ccc(-c3cn(Cc4ccc(-c5nnc(C(F)F)o5)cc4F)nn3)cn2)CC1` [Compound 17777, 2-(difluoromethyl)-5-(4-((4-(6-((4,4-dimethylpiperidin-1-yl)methyl)pyridin-3-yl)-1H-1,2,3-triazol-1-yl)methyl)-3-fluorophenyl)-1,3,4-oxadiazole] was tested, and the IC50 (human recombinant HDAC1; [3]) was > 50000 nM, the “HDAC6 selectivity (fold)” value (human recombinant HDAC6; HDAC6 over HDAC1) was 952 fold and the IC50 (human recombinant HDAC6; [4]) was 52.5 nM.
`FC(F)c1nnc(-c2ccc(Cn3cc(-c4ccc(CN5CC6(COC6)C5)cc4)nn3)nc2)o1` [Compound 4561, 6-(4-(1-((5-(5-(difluoromethyl)-1,3,4-oxadiazol-2-yl)pyridin-2-yl)methyl)-1H-1,2,3-triazol-4-yl)benzyl)-2-oxa-6-azaspiro[3.3]heptane] was tested, and the IC50 (human recombinant HDAC1; [3]) was > 50000 nM, the “HDAC6 selectivity (fold)” value (human recombinant HDAC6; HDAC6 over HDAC1) was 3571 fold and the IC50 (human recombinant HDAC6; [4]) was 14 nM.
In the case of `CC(C)N1CC(c2cn(Cc3ccc(-c4nnc(C(F)F)o4)cn3)nn2)C1` [Compound 3952, 2-(difluoromethyl)-5-(6-((4-(1-isopropylazetidin-3-yl)-1H-1,2,3-triazol-1-yl)methyl)pyridin-3-yl)-1,3,4-oxadiazole], the IC50 (human recombinant HDAC1; [1]) is reported as > 50000 nM, the “HDAC6 selectivity (fold)” value (human recombinant HDAC6; HDAC1 IC50 / HDAC6 IC50) is reported as 76 fold and the IC50 (human recombinant HDAC6; [2]) is reported as 653 nM.
With `FC(F)c1nnc(-c2ccc(Cn3cc(-c4ccc5c(c4)CN(C4CCC4)CC5)nn3)nc2)o1` [Compound 4212, 2-(6-((4-(2-cyclobutyl-1,2,3,4-tetrahydroisoquinolin-7-yl)-1H-1,2,3-triazol-1-yl)methyl)pyridin-3-yl)-5-(difluoromethyl)-1,3,4-oxadiazole] the IC50 (human recombinant HDAC1; [1]) was > 50000 nM, the “HDAC6 selectivity (fold)” value (human recombinant HDAC6; HDAC1 IC50 / HDAC6 IC50) was 1602 fold and the IC50 (human recombinant HDAC6; [2]) was 31.2 nM.
For `CN1Cc2ccc(-c3cn(Cc4ccc(-c5nnc(C(F)F)o5)cn4)nn3)cc2C1` [Compound 4540, 2-(difluoromethyl)-5-(6-((4-(2-methylisoindolin-5-yl)-1H-1,2,3-triazol-1-yl)methyl)pyridin-3-yl)-1,3,4-oxadiazole], the IC50 (human recombinant HDAC1; [3]) was > 50000 nM, the “HDAC6 selectivity (fold)” value (human recombinant HDAC6; HDAC6 over HDAC1) was 583 fold and the IC50 (human recombinant HDAC6; [4]) was 85.7 nM.
`CCCc1cn(Cc2ccc(-c3nnc(C(F)F)o3)cn2)nn1` [Compound 3831, 2-(difluoromethyl)-5-(6-((4-propyl-1H-1,2,3-triazol-l-yl)methyl)pyridin-3-yl)-1,3,4-oxadiazole] was tested, and the IC50 (human recombinant HDAC1; [1]) was > 50000 nM, the “HDAC6 selectivity (fold)” value (human recombinant HDAC6; HDAC1 IC50 / HDAC6 IC50) was 343 fold and the IC50 (human recombinant HDAC6; [2]) was 145 nM.
With `CN(C)Cc1ccc(-c2cn(Cc3ncc(-c4nnc(C(F)F)o4)cc3F)nn2)s1` [Compound 18311, 1-(5-(1-((5-(5-(difluoromethyl)-1,3,4-oxadiazol-2-yl)-3-fluoropyridin-2-yl)methyl)-1H-1,2,3-triazol-4-yl)thiophen-2-yl)-N,N-dimethylmethanamine] the IC50 (human recombinant HDAC1; [3]) was > 50000 nM, the “HDAC6 selectivity (fold)” value (human recombinant HDAC6; HDAC6 over HDAC1) was 934 fold and the IC50 (human recombinant HDAC6; [4]) was 53.5 nM.
For `Fc1cc(-c2nnc(C(F)F)o2)ccc1Cn1cc(-c2ccc(Cl)nc2)nn1` [Compound 16781, 2-(4-((4-(6-chloropyridin-3-yl)-1H-1,2,3-triazol-1-yl)methyl)-3-fluorophenyl)-5-(difluoromethyl)-1,3,4-oxadiazole], the IC50 (human recombinant HDAC1; [3]) was > 50000 nM, the “HDAC6 selectivity (fold)” value (human recombinant HDAC6; HDAC6 over HDAC1) was 546 fold and the IC50 (human recombinant HDAC6; [4]) was 91.5 nM.
`C[C@@H]1CN(c2cccc(-c3cn(Cc4ccc(-c5nnc(C(F)F)o5)cc4F)nn3)c2)C[C@H](C)N1C` [Compound 4443, 2-(difluoromethyl)-5-(3-fluoro-4-((4-(3-((3R,5S)-3,4,5-trimethylpiperazin-1-yl)phenyl)-1H-1,2,3-triazol-1-yl)methyl)phenyl)-1,3,4-oxadiazole] was tested, and the IC50 (human recombinant HDAC1; [1]) was > 50000 nM, the “HDAC6 selectivity (fold)” value (human recombinant HDAC6; HDAC1 IC50 / HDAC6 IC50) was 2183 fold and the IC50 (human recombinant HDAC6; [2]) was 22.9 nM.
In the case of `CCN(CC)Cc1ccc(-c2cn(Cc3ccc(-c4nnc(C(F)F)o4)cc3F)nn2)cc1` [Compound 4608, N-(4-(1-(4-(5-(difluoromethyl)-1,3,4-oxadiazol-2-yl)-2-fluorobenzyl)-1H-1,2,3-triazol-4-yl)benzyl)-N-ethylethanamine], the IC50 (human recombinant HDAC1; [3]) is reported as > 50000 nM, the “HDAC6 selectivity (fold)” value (human recombinant HDAC6; HDAC6 over HDAC1) is reported as 1893 fold and the IC50 (human recombinant HDAC6; [4]) is reported as 26.4 nM.
In the case of `FC(F)c1nnc(-c2ccc(Cn3cc(C4CN(C5CCC5)C4)nn3)nc2)o1` [Compound 3954, 2-(6-((4-(1-cyclobutylazetidin-3-yl)-1H-1,2,3-triazol-1-yl)methyl)pyridin-3-yl)-5-(difluoromethyl)-1,3,4-oxadiazole], the IC50 (human recombinant HDAC1; [1]) is reported as > 50000 nM, the “HDAC6 selectivity (fold)” value (human recombinant HDAC6; HDAC1 IC50 / HDAC6 IC50) is reported as 116 fold and the IC50 (human recombinant HDAC6; [2]) is reported as 429 nM.
In the case of `Cn1c(Cc2ccc(-c3nnc(C(F)F)o3)cc2)nnc1-c1ccccc1` [Compound 3981, 2-(difluoromethyl)-5-(4-((4-methyl-5-phenyl-4H-1,2,4-triazol-3-yl)methyl)phenyl)-1,3,4-oxadiazole], the IC50 (human recombinant HDAC1; [1]) is reported as > 50000 nM, the “HDAC6 selectivity (fold)” value (human recombinant HDAC6; HDAC1 IC50 / HDAC6 IC50) is reported as 41 fold and the IC50 (human recombinant HDAC6; [2]) is reported as 1200 nM.
`CCN1CC(c2cn(Cc3ccc(-c4nnc(C(F)F)o4)cn3)nn2)C1` [Compound 3951, 2-(difluoromethyl)-5-(6-((4-(1-ethylazetidin-3-yl)-1H-1,2,3-triazol-1-yl)methyl)pyridin-3-yl)-1,3,4-oxadiazole] was tested, and the IC50 (human recombinant HDAC1; [1]) was > 50000 nM, the “HDAC6 selectivity (fold)” value (human recombinant HDAC6; HDAC1 IC50 / HDAC6 IC50) was 81 fold and the IC50 (human recombinant HDAC6; [2]) was 613 nM.
In the case of `CC1CCN(Cc2ccc(-c3cn(Cc4ccc(-c5nnc(C(F)F)o5)cc4F)nn3)cn2)CC1` [Compound 18177, 2-(difluoromethyl)-5-(3-fluoro-4-((4-(6-((4-methylpiperidin-1-yl)methyl)pyridin-3-yl)-1H-1,2,3-triazol-1-yl)methyl)phenyl)-1,3,4-oxadiazole], the IC50 (human recombinant HDAC1; [3]) is reported as > 50000 nM, the “HDAC6 selectivity (fold)” value (human recombinant HDAC6; HDAC6 over HDAC1) is reported as 784 fold and the IC50 (human recombinant HDAC6; [4]) is reported as 63.7 nM.
In the case of `CC(C)N1CCN(c2cc(-c3cn(Cc4ccc(-c5nnc(C(F)F)o5)cc4F)nn3)ccn2)CC1` [Compound 4635], the IC50 (human recombinant HDAC1; [3]) is reported as > 50000 nM, the “HDAC6 selectivity (fold)” value (human recombinant HDAC6; HDAC6 over HDAC1) is reported as 2525 fold and the IC50 (human recombinant HDAC6; [4]) is reported as 19.8 nM.
